From ChEMBL document CHEMBL3407385, “Promiscuous 2-aminothiazoles (PrATs): a frequent hitting scaffold” (J Med Chem, 2015)
The source made the active and inactive calls. The calls are words filed in the database; no cut-off is given here.

What was measured:
[1] = Binding affinity to oxidoreductase 1 (unknown origin) at 1.5 mM by HSQC-NMR analysis
[2] = Binding affinity to oxidoreductase 1 (unknown origin) at 1 mM by HSQC-NMR analysis
[3] = Binding affinity to oxidoreductase 1 (unknown origin) by STD-NMR analysis
[4] = molecular target: T1, SPRY domain-containing SOCS box protein 2 (Homo sapiens) (UniProt Q99619); assay: Binding affinity to SPSB2 (unknown origin) at 3mM by 19F NMR method
T1 sequence (whole entry): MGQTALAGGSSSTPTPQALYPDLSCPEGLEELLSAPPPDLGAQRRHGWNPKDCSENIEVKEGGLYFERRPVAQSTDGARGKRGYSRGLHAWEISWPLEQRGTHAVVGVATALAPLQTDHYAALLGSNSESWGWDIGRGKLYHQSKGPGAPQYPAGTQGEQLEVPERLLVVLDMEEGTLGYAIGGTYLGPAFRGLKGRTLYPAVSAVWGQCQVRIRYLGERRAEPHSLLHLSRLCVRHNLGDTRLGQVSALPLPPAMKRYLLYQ

Activity [1]	Activity [2]	Activity [3]	Activity [4]	Structure (SMILES)
Active	–	–	–	Nc1nc2cc3c(cc2s1)OCCO3
–	Active	–	–	COc1ccc(-c2nc(N)sc2C)cc1
–	Active	–	–	Cc1sc(N)nc1-c1ccccc1
–	Active	Active	Active	Nc1nc(-c2ccccc2)cs1
